Source: ChEMBL document CHEMBL3994585, “Synthesis of α-santonin derivatives for diminutive effect on T and B-cell proliferation and their structure activity relationships” (Eur J Med Chem, 2017)

What was measured:
[1] = system: B-cell; experiment: Immunosuppressive activity in Balb/c mouse B cells assessed as LPS-induced cell proliferation at 10 uM after 48 hrs by MTT assay relative to control; assay type: functional
[2] = system: B-cell; experiment: Immunosuppressive activity in Balb/c mouse B cells assessed as LPS-induced cell proliferation at 100 uM after 48 hrs by MTT assay relative to control; assay type: functional
[3] = system: T-cell; experiment: Immunosuppressive activity in Balb/c mouse T cells assessed as ConA-induced cell proliferation at 1 uM after 48 hrs by MTT assay relative to control; assay type: functional
[4] = system: B-cell; experiment: Immunosuppressive activity in Balb/c mouse B cells assessed as LPS-induced cell proliferation at 1 uM after 48 hrs by MTT assay relative to control; assay type: functional
[5] = system: T-cell; experiment: Immunosuppressive activity in Balb/c mouse T cells assessed as ConA-induced cell proliferation at 100 uM after 48 hrs by MTT assay relative to control; assay type: functional
[6] = system: T-cell; experiment: Immunosuppressive activity in Balb/c mouse T cells assessed as ConA-induced cell proliferation at 10 uM after 48 hrs by MTT assay relative to control; assay type: functional
[7] = system: B-cell; experiment: Cytotoxicity against Balb/c mouse B cells assessed as reduction in cell proliferation at 1 uM after 48 hrs by MTT assay; assay type: cell-based
[8] = system: B-cell; experiment: Immunostimulant activity in Balb/c mouse B cells assessed as LPS-induced cell proliferation at 1 uM after 48 hrs by MTT assay relative to control; assay type: ADME, cell-based
[9] = system: T-cell; experiment: Immunostimulant activity in Balb/c mouse T cells assessed as ConA-induced cell proliferation at 10 uM after 48 hrs by MTT assay relative to control; assay type: ADME, cell-based
[10] = system: T-cell; experiment: Cytotoxicity against Balb/c mouse T cells assessed as reduction in cell proliferation at 1 uM after 48 hrs by MTT assay; assay type: cell-based
[11] = system: B-cell; experiment: Cytotoxicity against Balb/c mouse B cells assessed as reduction in cell proliferation at 100 uM after 48 hrs by MTT assay; assay type: cell-based
[12] = system: B-cell; experiment: Cytotoxicity against Balb/c mouse B cells assessed as reduction in cell proliferation at 10 uM after 48 hrs by MTT assay; assay type: cell-based
[13] = system: T-cell; experiment: Immunostimulant activity in Balb/c mouse T cells assessed as ConA-induced cell proliferation at 1 uM after 48 hrs by MTT assay relative to control; assay type: ADME, cell-based
[14] = system: T-cell; experiment: Cytotoxicity against Balb/c mouse T cells assessed as reduction in cell proliferation at 10 uM after 48 hrs by MTT assay; assay type: cell-based
[15] = system: T-cell; experiment: Cytotoxicity against Balb/c mouse T cells assessed as reduction in cell proliferation at 100 uM after 48 hrs by MTT assay; assay type: cell-based
[16] = system: B-cell; experiment: Immunostimulant activity in Balb/c mouse B cells assessed as LPS-induced cell proliferation at 10 uM after 48 hrs by MTT assay relative to control; assay type: ADME, cell-based
[17] = system: T-cell; experiment: Immunostimulant activity in Balb/c mouse T cells assessed as ConA-induced cell proliferation at 100 uM after 48 hrs by MTT assay relative to control; assay type: ADME, cell-based

| SMILES | Activity [1] [%] | Activity [2] [%] | Activity [3] [%] | Activity [4] [%] | Activity [5] [%] | Activity [6] [%] | Activity [7] | Activity [8] [%] | Activity [9] [%] | Activity [10] | Activity [11] | Activity [12] | Activity [13] [%] | Activity [14] | Activity [15] | Activity [16] [%] | Activity [17] [%] |
| --- | --- | --- | --- | --- | --- | --- | --- | --- | --- | --- | --- | --- | --- | --- | --- | --- | --- |
| COc1ccc2cc(-n3nncc3COc3cc(C)c4c(c3C)[C@@H]3OC(=O)[C@@H](C)[C@@H]3CC4)ccc2c1 | -25.64 | -94.01 | -93.9 | -36.75 | -93.9 | -95.12 |  |  |  |  |  |  |  |  |  |  |  |
| CC(=O)Nc1ccc(-n2nncc2COc2cc(C)c3c(c2C)[C@@H]2OC(=O)[C@@H](C)[C@@H]2CC3)cc1 | -36.84 | -8.42 | -28.42 | -44.21 | -6.31 | -29.47 |  |  |  |  |  |  |  |  |  |  |  |
| Cc1cc(O)c(C)c2c1CC[C@@H]([C@@H](C)C(=O)Nc1nccc(C)c1[N+](=O)[O-])C2 |  | -2.98 |  |  | -26.37 |  | Toxic | 28.35 | 42.85 | Toxic | Non-Toxic | Toxic | 24.72 | Toxic | Non-Toxic | 64.67 |  |
| Cc1cc(O)c(C)c2c1CC[C@@H]([C@@H](C)C(=O)N1CCOCC1)C2 |  | -2.98 |  | -4.97 | -21.42 |  | Non-Toxic |  | 12.08 | Non-Toxic | Non-Toxic | Non-Toxic | 8.79 | Non-Toxic | Non-Toxic | 14.92 |  |
| Cc1cc(OCc2cnnn2-c2ccc3c(c2)OCO3)c(C)c2c1CC[C@H]1[C@H](C)C(=O)O[C@@H]21 | -50.52 | -32.63 | -29.47 | -14.73 | -29.47 | -45.26 |  |  |  |  |  |  |  |  |  |  |  |
| CCOC(=O)[C@H](C)c1ccc2c(C)cc(OC)c(C)c2c1 | -23.07 | -25.82 | -31.61 | -40.1 | -5.88 | -37.5 | Non-Toxic |  |  | Non-Toxic | Toxic | Toxic |  | Toxic | Toxic |  |  |
| CC1=C(Cl)C=C[C@]2(C)CC[C@@H]3C(=C12)OC(=O)[C@H]3C |  | -4.42 | -5.15 | -8.84 |  |  | Toxic |  | 16.49 | Toxic | Toxic | Toxic |  | Toxic | Toxic | 7.96 | 9.27 |
| Cc1ccc(NC(=O)[C@H](C)[C@@H]2CCc3c(C)cc(O)c(C)c3C2)cc1O |  | -29.35 |  |  |  |  | Non-Toxic | 6.96 | 3.84 | Non-Toxic | Non-Toxic | Non-Toxic | 11.53 | Non-Toxic | Non-Toxic | 11.44 | 9.89 |
| Cc1cc(OCc2cnnn2-c2cccc(I)c2)c(C)c2c1CC[C@H]1[C@H](C)C(=O)O[C@@H]21 | -20 | -15.79 | -15.79 | -15.79 | -3.15 | -20 |  |  |  |  |  |  |  |  |  |  |  |
| Cc1ccc(I)cc1-n1nncc1COc1cc(C)c2c(c1C)[C@@H]1OC(=O)[C@@H](C)[C@@H]1CC2 | -14.73 | -16.84 | -13.68 | -34.73 | -23.15 | -26.31 |  |  |  |  |  |  |  |  |  |  |  |
| CCOC(=O)[C@H](C)c1ccc2c(C)cc(O)c(C=O)c2c1 | -5.3 | -2.65 |  |  |  |  | Toxic | 14.15 | 49.48 | Toxic | Toxic | Toxic | 34.02 | Toxic | Toxic |  | 24.74 |
| Cc1cc(O)c(C)c2c1CCC1C2OC(O)C1C (centres undefined) |  | -12.38 |  |  |  |  | Toxic | 13.27 | 16.49 | Toxic | Toxic | Toxic | 31.95 | Toxic | Toxic | 9.73 | 16.49 |
| Cc1cc(O)c(C)c2c1CCC(C(C)CO)C2O (centres undefined) |  | -11.96 |  |  |  |  | Toxic | 14.52 | 26.34 | Toxic | Toxic | Toxic | 31.18 | Toxic | Toxic | 8.54 | 6.45 |
| Cc1c(N)c(O)c(C)c2c1CC[C@H]1[C@H](C)C(=O)O[C@@H]21 |  | -16.66 |  |  |  |  | Toxic | 17.52 | 36.02 | Toxic | Toxic | Toxic | 13.97 | Toxic | Toxic | 33.33 | 5.91 |
| Cc1cc(OCc2cnnn2-c2ccc(C=O)cc2)c(C)c2c1CC[C@H]1[C@H](C)C(=O)O[C@@H]21 | -22.5 | -35 | -5.83 | -24.16 | -20.83 | -6.66 |  |  |  |  |  |  |  |  |  |  |  |
| COc1cc(-n2nncc2COc2cc(C)c3c(c2C)[C@@H]2OC(=O)[C@@H](C)[C@@H]2CC3)cc(OC)c1OC | -26.31 | -14.73 | -20 | -16.84 | -16.84 | -14.73 |  |  |  |  |  |  |  |  |  |  |  |
| CCOC(=O)[C@H](C)c1ccc2c(C)cc(O)c(C)c2c1 |  | -6.41 |  | -3.84 |  |  | Toxic |  | 39.78 | Toxic | Toxic | Toxic | 15.59 | Toxic | Toxic | 23.5 | 5.91 |
| COc1cccc(NC(=O)[C@H](C)[C@@H]2CCc3c(C)cc(O)c(C)c3C2)c1 |  | -13.93 |  | -0.99 | -31.86 | -12.63 | Toxic |  |  | Toxic | Non-Toxic | Non-Toxic | 8.79 | Non-Toxic | Non-Toxic | 3.98 |  |
